pEC50: −log10 of the molar value.
Assays:
[1] = tested on: cellular pERK in MIA-PaCa-2 (KRAS-G12C) cells; assay: Cell based pERK assay, MIA-PaCa-2; details: Homo sapiens; MIA-PaCa-2 (KRAS-G12C), 2 hours incubation, HTRF phospho-ERK1/2; read-out: MIAPaCa2 pERK EC50
Procedure: (§1) Compounds were tested in a 384-well assay format for their ability to inhibit cellular pERK in Kuramochi (WT KRAS), MIA-PaCa-2 (KRAS-G12C), ASPC-1 (KRAS G12D), and NCI-H441 (KRAS-G12V) cell-lines. Compounds were serially diluted (1:3) in DMSO. On day −1, 80 μL of cells were plated per well in the 384 well tissue-culture plates (Greiner: Cat #781080) to seed 5000 cells per wells of AsPC-1 or 7500 cells of MIA-PaCa-2, NCI-H441, and Kuramochi cell lines in RPMI (Corning: Cat #10-040-CM) with 10% fetal bovine serum (FBS) (HyClone: Cat #SH30071-03) and 1× penicillin-streptomycin-glutamate (PSG) (Corning: Cat #30-009-CI) for […] and Kuramochi cell lines and DMEM (Corning: Cat #15-018-CM) with 10% FBS and 1×PSG for MIA-PaCa-2 cell line. The plates were then incubated overnight at 37° C. and 5% CO2. On day 0, 400 nL of compound/well was added into the cell plates and mixed 5 times by pipetting using a Beckmann Biomek FX. The cell plates were then incubated for 2 hours at 37° C. and 5% CO2. HTRF Advanced Phospho-ERK1/2 (THR202/TYR204) Detection Kits (PerkinElmer: Cat #64AERPEG) were used to prepare the lysis and detection solution according to manufacturer protocol. Following the 2 hour incubation, 70 μL of medium was aspirated from the plates and 10 uL of lysis and detection solution was added to the plates using a Biotek EL406 washer and dispenser. Plates were sealed and stored overnight at room temperature. HTRF ratio (665 nm/615 nm) was read by Envision multimode reader (PerkinElmer) the next day. The TR-FRET ratios were normalized to a positive (saturating concentration of known inhibitor) and negative (DMSO) control and plotted against the log of compound concentration.

[2] = tested on: cellular pERK in Kuramochi (WT KRAS) cells; assay: Cell based pERK assay, Kuramochi; details: Kuramochi (WT KRAS), 2 hours incubation, HTRF phospho-ERK1/2; read-out: Kuramochi pERK EC50
Procedure: as §1

[3] = tested on: cellular pERK in ASPC-1 (KRAS G12D) cells; assay: Cell based pERK assay, ASPC-1; details: Homo sapiens, ASPC1; ASPC-1 (KRAS G12D), 2 hours incubation, HTRF phospho-ERK1/2; read-out: AsPC1 pERK EC50
Procedure: as §1

[4] = tested on: cellular pERK in NCI-H441 (KRAS-G12V) cells; assay: Cell based pERK assay, NCI-H441; details: Homo sapiens; NCI-H441 (KRAS-G12V), 2 hours incubation, HTRF phospho-ERK1/2; read-out: H441 PERK EC50
Procedure: as §1

| Compound | pEC50 [1] | pEC50 [2] | pEC50 [3] | pEC50 [4] |
| --- | --- | --- | --- | --- |
| C#Cc1c(F)ccc2cc(O)cc(-c3nc4c5c(nc(OC[C@@]67CCCN6C[C@H](F)C7)nc5c3F)N3C[C@@]5(F)CC[C@](F)(N5)[C@H]3CO4)c12 [Example 4-16, 5-ethynyl-6-fluoro-4-((5aR,6R,9S)-1,6,9-trifluoro-12-(((2R,7aS)-2-fluorotetrahydro-1H-pyrrolizin-7a(5H)-yl)methoxy)-5a,6,7,8,9,10-hexahydro-5H-4-oxa-3,10a,11,13,14-pentaaza-6,9-methanonaphtho[1,8-ab]heptalen-2-yl)naphthalen-2-ol] | 6.80 | 6.83 | < 6.00 | < 6.11 |
| C#Cc1c(F)ccc2cc(N)cc(-c3nc4c5c(nc(OC[C@@]67CCCN6C[C@H](F)C7)nc5c3F)N3C[C@@]5(F)CC[C@](F)(N5)[C@@H]3CC4)c12 [Example 4-19, 5-ethynyl-6-fluoro-4-((5aS,6R,9S)-1,6,9-trifluoro-12-(((2R,7aS)-2-fluorotetrahydro-1H-pyrrolizin-7a(5H)-yl)methoxy)-4,5,5a,6,7,8,9,10-octahydro-3,10a,11,13,14-pentaaza-6,9-methanonaphtho[1,8-ab]heptalen-2-yl)naphthalen-2-amine] | 9.63 | 9.04 | 8.29 | 8.97 |
| C#Cc1c(F)ccc2cc(O)cc(-c3nc4c5c(nc(OC[C@@]67CCCN6C[C@H](F)C7)nc5c3F)N3C[C@@]5(F)CC[C@](F)(N5)[C@@H]3CC4)c12 [Example 4-20, 5-ethynyl-6-fluoro-4-((5aS,6R,9S)-1,6,9-trifluoro-12-(((2R,7aS)-2-fluorotetrahydro-1H-pyrrolizin-7a(5H)-yl)methoxy)-4,5,5a,6,7,8,9,10-octahydro-3,10a,11,13,14-pentaaza-6,9-methanonaphtho[1,8-ab]heptalen-2-yl)naphthalen-2-ol] | 10.09 | 8.75 | 9.13 | 9.21 |
| Oc1cc(-c2nc3c4c(nc(OCC56CCCN5CCC6)nc4c2F)N2C[C@@]4(F)CC[C@](F)(N4)[C@H]2CCC3)c2c(Cl)c(F)ccc2c1 [Example 4-27, 5-chloro-6-fluoro-4-((6aR,7R,10S)-1,7,10-trifluoro-13-((tetrahydro-1H-pyrrolizin-7a(5H)-yl)methoxy)-5,6,6a,7,8,9,10,11-octahydro-4H-3,11a,12,14,15-pentaaza-7,10-methanocyclohepta[4,5]cycloocta[1,2,3-de]naphthalen-2-yl)naphthalen-2-ol] | 8.52 | 8.59 | 7.19 | 7.86 |
| C#Cc1c(F)ccc2cc(N)cc(-c3nc4c5c(nc(OCC67CCCN6CCC7)nc5c3F)N3C[C@@]5(F)CC[C@](F)(N5)[C@@H]3CC4)c12 [Example 4-34, 5-ethynyl-6-fluoro-4-((5aS,6R,9S)-1,6,9-trifluoro-12-((tetrahydro-1H-pyrrolizin-7a(5H)-yl)methoxy)-4,5,5a,6,7,8,9,10-octahydro-3,10a,11,13,14-pentaaza-6,9-methanonaphtho[1,8-ab]heptalen-2-yl)naphthalen-2-amine] | 9.29 | 8.48 | 7.68 | 8.56 |
| C#Cc1c(F)c(F)cc2cc(N)cc(-c3nc4c5c(nc(OCC67CCCN6CCC7)nc5c3F)N3C[C@@]5(F)CC[C@](F)(N5)[C@@H]3CC4)c12 [Example 4-35, 5-ethynyl-6,7-difluoro-4-((5aS,6R,9S)-1,6,9-trifluoro-12-((tetrahydro-1H-pyrrolizin-7a(5H)-yl)methoxy)-4,5,5a,6,7,8,9,10-octahydro-3,10a,11,13,14-pentaaza-6,9-methanonaphtho[1,8-ab]heptalen-2-yl)naphthalen-2-amine] | 9.10 | 8.43 | 7.47 | 8.27 |
| C#Cc1c(F)ccc2cc(N)cc(-c3nc4c5c(nc(OC[C@@]67CCCN6CC(=C)C7)nc5c3F)N3C[C@@]5(F)CC[C@](F)(N5)[C@H]3CCC4)c12 [Example 4-38, 5-ethynyl-6-fluoro-4-((6aR,7R,10S)-1,7,10-trifluoro-13-(((S)-2-methylenetetrahydro-1H-pyrrolizin-7a(5H)-yl)methoxy)-5,6,6a,7,8,9,10,11-octahydro-4H-3,11a,12,14,15-pentaaza-7,10-methanocyclohepta[4,5]cycloocta[1,2,3-de]naphthalen-2-yl)naphthalen-2-amine] | 9.87 | 8.57 | 8.66 | 9.00 |
| C#Cc1c(F)ccc2cc(N)cc(-c3nc4c5c(nc(OC[C@@]67CCCN6CC(=C)C7)nc5c3F)N3C[C@@]5(F)CC[C@](F)(N5)[C@@H]3[C@@H](C)C4)c12 [Example 4-40, 5-ethynyl-6-fluoro-4-((5S,5aS,6R,9S)-1,6,9-trifluoro-5-methyl-12-(((S)-2-methylenetetrahydro-1H-pyrrolizin-7a(5H)-yl)methoxy)-4,5,5a,6,7,8,9,10-octahydro-3,10a,11,13,14-pentaaza-6,9-methanonaphtho[1,8-ab]heptalen-2-yl)naphthalen-2-amine] | 10.17 | 8.78 | 9.15 | 9.42 |
| Nc1cc(-c2nc3c4c(nc(OCC56CCCN5CCC6)nc4c2F)N2C[C@@]4(F)CC[C@](F)(N4)[C@H]2CCC3)c2c(F)c(F)ccc2c1 [Example 5-4, 5,6-difluoro-4-[(4S,7R,8R)-4,7,15-trifluoro-18-(1,2,3,5,6,7-hexahydropyrrolizin-8-ylmethoxy)-2,13,17,19,21-pentazapentacyclo[10.7.1.14,7.02,8.016,20]henicosa-1(19),12(20),13,15,17-pentaen-14-yl]naphthalen-2-amine] | 7.54 | 8.30 | 6.38 | 6.98 |
| CCc1c(F)ccc2cc(O)cc(-c3nc4c5c(nc(OCC67CCCN6CCC7)nc5c3F)N3C[C@@]5(F)CC[C@](F)(N5)[C@H]3CCC4)c12 [Example 6-1, 5-ethyl-6-fluoro-4-((6aR,7R,10S)-1,7,10-trifluoro-13-((tetrahydro-1H-pyrrolizin-7a(5H)-yl)methoxy)-5,6,6a,7,8,9,10,11-octahydro-4H-3,11a,12,14,15-pentaaza-7,10-methanocyclohepta[4,5]cycloocta[1,2,3-de]naphthalen-2-yl)naphthalen-2-ol] | 8.82 | 8.45 | 7.50 | 7.71 |

— patent US20250042922A1, “KRAS MODULATING COMPOUNDS” (priority 2023, published 2025)
